Counter-ions that a name gives are not always drawn.
Key:
[1] = target: T1, recombinant human Lp-PLA2 (Homo sapiens, UniProt Q13093); experiment: Recombinant human Lp-PLA2 assay (rhLp-PLA2, PED6 assay); assay type: biochemical; conditions: recombinant human Lp-PLA2, PED6 substrate; upper limit for pIC50 in this assay is 9.3
T1 sequence (Q13093 22-441): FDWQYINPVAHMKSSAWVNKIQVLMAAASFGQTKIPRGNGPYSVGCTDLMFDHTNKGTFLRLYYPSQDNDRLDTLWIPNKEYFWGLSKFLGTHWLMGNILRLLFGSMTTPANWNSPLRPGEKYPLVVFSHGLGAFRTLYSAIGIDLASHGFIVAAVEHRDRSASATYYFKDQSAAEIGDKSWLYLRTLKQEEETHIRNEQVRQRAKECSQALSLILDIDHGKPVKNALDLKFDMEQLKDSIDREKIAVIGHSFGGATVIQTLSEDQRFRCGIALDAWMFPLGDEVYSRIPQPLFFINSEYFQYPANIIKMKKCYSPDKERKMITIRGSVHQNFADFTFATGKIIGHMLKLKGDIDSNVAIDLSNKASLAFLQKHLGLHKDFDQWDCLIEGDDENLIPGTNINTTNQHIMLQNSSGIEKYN
Procedure, shortened: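 Compound preincubated 30 min with rhLp-PLA2 (4 nM or 110 pM) in 50 mM HEPES pH 7.4, 150 mM NaCl, 1 mM CHAPS, then PED6 substrate (4 μM or 5 μM) added. After 20 min at room temperature protected from light, fluorescence read at ex 480/em 540. pIC50 derived from serial-dilution curves.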

Lp-PLA2 in human plasma = target: T2, Lp-PLA2 in human plasma (Homo sapiens, UniProt Q13093); experiment: Lp-PLA2 human plasma assay (Thio-PAF assay); assay type: biochemical; conditions: pooled human plasma, 2-thio-PAF substrate; read-out: pIC50 in the thio-PAF assay (converted)
T2 construct: This assay may detect the activity of Lp-PLA2 in human plasma; from tissue; host or cells: pooled human plasma
T2 sequence (Q13093 22-441): T1 sequence (Q13093 22-441)
Procedure, shortened: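 Pooled human plasma preincubated 30 min with serially diluted compounds, then 2-thio-PAF substrate with CPM and NEM added in 50 mM HEPES pH 7.4, 150 mM NaCl, 1 mM CHAPS. TFA-quenched after 2 min, 40 min at RT, fluorescence ex 380/em 485; pIC50 from curve fit.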

[2] = test system: experimental autoimmune encephalomyelitis (EAE) induced by myelin basic protein (MBP); experiment: Rat experimental autoimmune encephalomyelitis (EAE) model, preventive treatment; assay type: in vivo
Method: A further study was carried out to study the impact of Lp-PLA2 inhibitors on modulating M1/M2 imbalance. In this study, rats were induced to develop experimental autoimmune encephalomyelitis (EAE) by immunization with myelin basic protein (MBP) antigen and treated with a known Lp-PLA2 inhibitor: 5-((9-Methoxy-4-oxo-6,7-dihydro-4H-pyrimido[6,1-a]isoquinolin-2-yl)oxy)-2-(3-(trifluoromethyl)phenoxy)benzonitrile (See PCT application no. PCT/CN2011/001597). In this preventive treatment model, the compound was administered at day 0 (day of immunization) and continued to administer until day 22. The study lasted for 25 days. Rats were subsequently monitored for symptoms of EAE. Rats were immunized with MBP to develop EAE and symptoms were monitored daily. Plasma Lp-PLA2 activity, OxLDL, and LysoPC concentration were determined at different time points through the course of EAE.

[3] = test system: splenic macrophages and CNS infiltrating macrophages (M1/M2 markers); experiment: Ex vivo analysis of M1 and M2 markers in macrophages of EAE rats by realtime PCR; parameters: species or system rat; conditions: splenic macrophages harvested day 13 post MBP-immunization
Method: Ex vivo analysis of proinflammatory (M1) and anti-inflammatory (M2) markers in control and compound treated EAE rats. Splenic macrophages were harvested at day 13 post MBP-immunization and assayed for expression of a variety of markers by realtime PCR. CNS infiltrating cells were harvested and macrophages were analyzed for expression of M1 and M2 markers by realtime PCR.

| SMILES | IC50 [1] [nM] | IC50 (Lp-PLA2 in human plasma) [nM] | also measured |
| --- | --- | --- | --- |
| CN1CCn2c1cc(OCc1cc(F)c(Oc3cccc(C(F)(F)F)c3)c(F)c1)nc2=O [Example 102, 7-((3,5-difluoro-4-(3-(trifluoromethyl)phenoxy)benzyl)oxy)-1-methyl-2,3-dihydroimidazo[1,2-c]pyrimidin-5(1H)-one] | ≤ 1 | ≤ 100 | – |
| CN1CCn2c1cc(OCc1ccc(Oc3ccnc(Cl)c3)c(C#N)c1)nc2=O [Example 107, 2-((2-chloropyridin-4-yl)oxy)-5-(((1-methyl-5-oxo-1,2,3,5-tetrahydroimidazo[1,2-c]pyrimidin-7-yl)oxy)methyl)benzonitrile] | ≤ 10 | ≤ 1000 | – |
| CN1CCn2c1cc(OCc1ccc(Oc3ccnc(Cl)c3)c(F)c1)nc2=O [Example 109, 7-((4-((2-chloropyridin-4-yl)oxy)-3-fluorobenzyl)oxy)-1-methyl-2,3-dihydroimidaz-o[1,2-c]pyrimidin-5(1H)-one] | ≤ 10 | ≤ 1000 | – |
| N#Cc1cc(COc2cc3n(c(=O)n2)CCN3)ccc1Oc1cncc(C(F)(F)F)c1 [Example 124, 5-(((5-oxo-1,2,3,5-tetrahydroimidazo[1,2-c]pyrimidin-7-yl)oxy)methyl)-2-((5-(trifluoromethyl)pyridin-3-yl)oxy)benzonitrile, trifluoroacetic acid salt] | ≤ 10 | ≤ 100 | – |
| CN1CCn2c1cc(OCc1cc(F)c(Oc3ccc(C#N)c(C(F)(F)F)c3)c(F)c1)nc2=O [Example 144, 4-(2,6-difluoro-4-(((1-methyl-5-oxo-1,2,3,5-tetrahydroimidazo[1,2-c]pyrimidin-7-yl)oxy)methyl)phenoxy)-2-(trifluoromethyl)benzonitrile] | < 0.501 | ≤ 100 | – |
| COc1ccc2c(c1)CCn1c-2cc(Oc2ccc(Oc3cccc(C(F)(F)F)c3)c(C#N)c2)nc1=O [5-((9-Methoxy-4-oxo-6,7-dihydro-4H-pyrimido[6,1-a]isoquinolin-2-yl)oxy)-2-(3-(trifluoromethyl)phenoxy)benzonitrile] | – | – | LysoPC levels ([2]; rat EAE plasma): decreased; plasma Lp-PLA2 activity ([2]; rat EAE plasma): decreased; clinical disease (EAE) ([2]; rat EAE, compound administered day 0 until day 22, study 25 days): reduction in clinical disease; M1 (proinflammatory) markers expression [3]: decrease in M1 markers; M2 (anti-inflammatory) markers expression [3]: increase in M2 markers |
| Cc1cc(Oc2ccc(COc3cc4n(c(=O)n3)CCN4C)cc2F)ccc1C#N [Example 149, 4-(2-fluoro-4-(((1-methyl-5-oxo-1,2,3,5-tetrahydroimidazo[1,2-c]pyrimidin-7-yl)oxy)methyl)phenoxy)-2-methylbenzonitrile] | ≤ 10 | ≤ 1000 | – |
| CN1CCn2c1cc(OCc1cc(F)c(Oc3cccc(C#N)c3)c(F)c1)nc2=O [Example 104, 3-(2,6-difluoro-4-(((1-methyl-5-oxo-1,2,3,5-tetrahydroimidazo[1,2-c]pyrimidin-7-yl)oxy)methyl)phenoxy)benzonitrile] | ≤ 10 | ≤ 1000 | – |

Second part, led by results:

| IC50 [1] [nM] | IC50 (Lp-PLA2 in human plasma) [nM] | SMILES | also measured |
| --- | --- | --- | --- |
| ≤ 1 | ≤ 1000 | O=c1nc(OCc2ccc(Oc3cc(F)c(F)c(F)c3)c(F)c2)cc2n1CCN2 [Example E77, 7-((3-fluoro-4-(3,4,5-trifluorophenoxy)benzyl)oxy)-2,3-dihydroimidazo[1,2-c]pyrimidin-5(1H)-one, trifluoroacetic acid salt] | – |
| ≤ 1 | ≤ 100 | N#Cc1cc(COc2cc3n(c(=O)n2)CCN3)ccc1Oc1cccc(C(F)(F)F)c1 [Example E67, 5-(((5-oxo-1,2,3,5-tetrahydroimidazo[1,2-c]pyrimidin-7-yl)oxy)methyl)-2-(3-(trifluoromethyl)phenoxy)benzonitrile] | – |
| ≤ 1 | ≤ 100 | CN1CCn2c1cc(OCc1ccc(Oc3ccc(Cl)c(C(F)(F)F)c3)c(F)c1)nc2=O [Example E85, 7-((4-(4-chloro-3-(trifluoromethyl)phenoxy)-3-fluorobenzyl)oxy)-1-methyl-2,3-dihydroimidazo[1,2-c]pyrimidin-5(1H)-one] | – |
| ≤ 10 | ≤ 1000 | CN1CCn2c1cc(OCc1ccc(Oc3ccc(F)c(Cl)c3)c(F)c1)nc2=O [Example E15, 7-((4-(3-chloro-4-fluorophenoxy)-3-fluorobenzyl)oxy)-1-methyl-2,3-dihydroimida-zo[1,2-c]pyrimidin-5(1H)-one] | – |
| ≤ 1 | ≤ 1000 | N#Cc1cc(COc2cc3n(c(=O)n2)CCN3)ccc1Oc1ccc(F)c(Cl)c1 [Example E76, 2-(3-chloro-4-fluorophenoxy)-5-(((5-oxo-1,2,3,5-tetrahydroimidazo[1,2-c]pyrimidin-7-yl)oxy)methyl)benzonitrile, trifluoroacetic acid salt] | – |
| < 0.501 | ≤ 100 | CN1CCn2c1cc(OCc1ccc(Oc3ccc(C#N)c(C(F)(F)F)c3)c(C#N)c1)nc2=O [Example E78, 4-(2-cyano-4-(((l-methyl-5-oxo-1,2,3,5-tetrahydroimidazo[1,2-c]pyrimidin-7-yl)oxy)methyl)phenoxy)-2-(trifluoromethyl)benzonitrile] | – |
| ≤ 10 | ≤ 1000 | CN1CCn2c1cc(OCc1ccc(Oc3ccc(C(F)(F)F)cn3)c(C#N)c1)nc2=O [Example E35, 5-(((1-methyl-5-oxo-1,2,3,5-tetrahydroimidazo[1,2-c]pyrimidin-7-yl)oxy)methyl)-2-((5-(trifluoromethyl)pyridin-2-yl)oxy)benzonitrile, trifluoroacetic acid salt] | – |
| ≤ 10 | ≤ 1000 | CN1CCn2c1cc(OCc1ccc(Oc3cccc(C#N)c3)c(C#N)c1)nc2=O [Example E62, 2-(3-cyanophenoxy)-5-(((l-methyl-5-oxo-1,2,3,5-tetrahydroimidazo[1,2-c]pyrimidin-7-yl)oxy)methyl)benzonitrile, trifluoroacetic acid salt] | – |
| ≤ 1 | ≤ 1000 | CN1CCn2c1cc(OCc1cc(F)c(Oc3cccc(Cl)c3)c(F)c1)nc2=O [Example E82, 7-((4-(3-chlorophenoxy)-3,5-difluorobenzyl)oxy)1-methyl-2,3-dihydroimidazo[1,2-c]pyrimidin-5(1H)-one] | – |
| ≤ 10 | ≤ 1000 | CN1CCn2c1cc(OCc1ccc(Oc3ccc(C(F)(F)F)nc3)c(F)c1)nc2=O [Example E3, 7-((3-fluoro-4-((6-(trifluoromethyl)pyridin-3-yl)oxy)benzyl)oxy)-1-methyl-2,3-dihydroimidazo[1,2-c]pyrimidin-5(1H)-one] | – |
| ≤ 10 | ≤ 1000 | CN1CCn2c1cc(OCc1ccc(Oc3ccc(Cl)c(F)c3)cc1)nc2=O [Example E25, 7-((4-(4-chloro-3-fluorophenoxy)benzyl)oxy)-1-methyl-2,3-dihydroimidazo[1,2-c]pyrimidin-5(1H)-one] | – |
